Measurements published in ChEMBL document CHEMBL6103592, “Discovery of novel thiazole-pleuromutilin derivatives with potent antibacterial activity” (Eur J Med Chem, 2025).
pIC50: −log10 of the molar value. Converted amounts (≈) assume the structure as drawn. The source made the active and inactive calls. The calls are words filed in the database; no cut-off is given here.

Assays:
[1] = tested on: Enterococcus faecalis; assay: Antibacterial activity against Enterococcus faecalis assessed as inhibition of visible bacterial growth incubated for 24 hrs by CLSI based broth microdilution method; type: functional
[2] = tested on: Escherichia coli; assay: Antibacterial activity against Escherichia coli ATCC 25922 assessed as inhibition of visible bacterial growth incubated for 24 hrs by CLSI based broth microdilution method; type: functional
[3] = tested on: Streptococcus agalactiae; assay: Antibacterial activity against Streptococcus agalactiae assessed as inhibition of visible bacterial growth incubated for 24 hrs by CLSI based broth microdilution method; type: functional
[4] = tested on: Mycoplasma; assay: Antibacterial activity against Mycoplasma F3 assessed as inhibition of visible bacterial growth incubated for 24 hrs by CLSI based broth microdilution method; type: functional
[5] = tested on: Staphylococcus aureus; assay: Bactericidal activity against methicillin-resistant Staphylococcus aureus ATCC 43300 assessed as increase in colony forming unit count at 1 times MIC incubated after 8 hrs by time-kill assay; type: functional, organism-based
[6] = tested on: Staphylococcus aureus; assay: Antibacterial activity against methicillin-resistant Staphylococcus aureus ATCC 43300 assessed as post antibiotic effect at 1 times MIC measured after 1 hr; type: functional
[7] = tested on: Staphylococcus aureus; assay: Antibacterial activity against methicillin-resistant Staphylococcus aureus ATCC 43300 assessed as post antibiotic effect at 2 times MIC measured after 1 hr; type: functional
[8] = tested on: Staphylococcus aureus; assay: Antibacterial activity against methicillin-resistant Staphylococcus aureus ATCC 43300 assessed as post antibiotic effect at 4 times MIC measured after 1 hr; type: functional
[9] = tested on: Staphylococcus aureus; assay: Antibacterial activity against methicillin-resistant Staphylococcus aureus ATCC 43300 assessed as post antibiotic effect at 8 times MIC measured after 1 hr; type: functional
[10] = tested on: Staphylococcus aureus; assay: Antibacterial activity against methicillin-resistant Staphylococcus aureus ATCC 43300 assessed as reduction in bacterial proteins level at 0.5 to 2 microg/ml measured for 4 hrs; type: functional, organism-based; details: dose 0.5-2 µg/ml
[11] = tested on: Staphylococcus aureus; assay: (§1) Antibacterial efficacy against methicillin-resistant Staphylococcus aureus ATCC 43300 infected in cyclophosphamide-induced neutropenic systemic infection Kunming mouse model assessed as effect on survival rate at 20 mg/kg, iv pretreated with cyclophosphamide for 1 hr followed by compound addition and measured after 7 days; type: functional, organism-based; details: time 7.0 day
[12] = tested on: Staphylococcus aureus; assay: as §1, with “inflammatory cell infiltration in lung” for “effect on survival rate”, “5” for “7”, “days by light microscopic analysis” for “days”; type: functional, organism-based; details: time 5.0 day
[13] = Cytotoxicity against human HEK293T cells assessed as cell viability at 200 micromol/L incubated for 24 hrs by CCK-8 assay relative to control; type: toxicity, cell-based, HEK-293T; details: dose 200 µmol/L, read-out: Activity
[14] = tested on: HepG2; assay: Cytotoxicity against human HepG2 cells assessed as cell viability at 200 micromol/L incubated for 24 hrs by CCK-8 assay relative to control; type: functional; details: HepG2, 24 h, dose 200 µmol/L, read-out: Activity
[15] = tested on: HepG2; assay: Cytotoxicity against human HepG2 cells assessed as cell viability incubated for 24 hrs by CCK-8 assay; type: functional, cell-based; details: HepG2, 24 h
[16] = Acute toxicity in rat assessed as tremors at 2000 mg/kg, po measured for 14 days; type: organism-based; details: in vivo, 336 h, time 14 day
[17] = Acute toxicity in rat assessed as body weight change at 2000 mg/kg, po measured at 24 hrs; type: organism-based; details: in vivo
[18] = Acute toxicity in rat assessed as animal death at 2000 mg/kg, po measured for 14 days; type: organism-based; details: in vivo, 336 h, time 14 day
[19] = Acute toxicity in rat assessed as pathological changes in kidney at 2000 mg/kg, po measured for 14 days; type: organism-based; details: in vivo, 336 h, time 14 day
[20] = Acute toxicity in rat assessed as degeneration of endometrial epithelial cells at 2000 mg/kg, po measured for 14 days by H and E staining based analysis; type: organism-based; details: in vivo, 336 h, time 14 day
[21] = Acute toxicity in rat assessed as degeneration of glandular epithelial cells at 2000 mg/kg, po measured for 14 days by H and E staining based analysis; type: organism-based; details: in vivo, 336 h, time 14 day
[22] = Acute toxicity in rat assessed as necrosis of glandular epithelial cells at 2000 mg/kg, po measured for 14 days by H and E staining based analysis; type: organism-based; details: in vivo, 336 h, time 14 day
[23] = Acute toxicity in rat assessed as absolute heart weight at 2000 mg/kg, po measured for 7 days (reference value: 0.77 +/- 0.12 g); type: organism-based; details: in vivo, 168 h, time 7 day
[24] = Acute toxicity in rat assessed as absolute kidney weight at 2000 mg/kg, po measured for 7 days (reference value: 1.60 +/- 0.16 g); type: organism-based; details: in vivo, 168 h, time 7 day
[25] = Acute toxicity in rat assessed as absolute uterus weight at 2000 mg/kg, po measured for 7 days (reference value: 0.52 +/- 0.18 g); type: organism-based; details: in vivo, 168 h, time 7 day
[26] = Acute toxicity in rat assessed as absolute heart weight at 2000 mg/kg, po administered for 7 days followed by readministration after 7 days and measured at 14 days (reference value: 0.77 +/- 0.12 g); type: organism-based; details: in vivo, 336 h, time 14 day
[27] = Acute toxicity in rat assessed as absolute liver weight at 2000 mg/kg, po administered for 7 days followed by readministration after 7 days and measured at 14 days (reference value: 8.43 +/- 0.43 g); type: organism-based; details: in vivo, 336 h, time 14 day
[28] = Acute toxicity in rat assessed as absolute kidney weight at 2000 mg/kg, po administered for 7 days followed by readministration after 7 days and measured at 14 days (reference value: 1.60 +/- 0.16 g); type: organism-based; details: in vivo, 336 h, time 14 day
[29] = Acute toxicity in rat assessed as absolute uterus weight at 2000 mg/kg, po administered for 7 days followed by readministration after 7 days and measured at 14 days (reference value: 0.52 +/- 0.18 g); type: organism-based; details: in vivo, 336 h, time 14 day
[30] = Acute toxicity in rat assessed as relative liver weight at 2000 mg/kg, po measured for 7 days (reference value: 4.36 +/- 0.23 %); type: organism-based; details: in vivo, 168 h, time 7 day
[31] = Acute toxicity in rat assessed as relative spleen weight at 2000 mg/kg, po measured for 7 days (reference value: 0.27 +/- 0.02%); type: organism-based; details: in vivo, 168 h, time 7 day
[32] = Acute toxicity in rat assessed as relative lung weight at 2000 mg/kg, po measured for 7 days (reference value: 0.58 +/- 0.03%); type: organism-based; details: in vivo, 168 h, time 7 day
[33] = Acute toxicity in rat assessed as relative kidney weight at 2000 mg/kg, po measured for 7 days (reference value: 0.83 +/- 0.08%); type: organism-based; details: in vivo, 168 h, time 7 day
[34] = Acute toxicity in rat assessed as relative uterus weight at 2000 mg/kg, po measured for 7 days (reference value: 0.27 +/- 0.09%); type: organism-based; details: in vivo, 168 h, time 7 day
[35] = Acute toxicity in rat assessed as relative heart weight at 2000 mg/kg, po administered for 7 days followed by readministration after 7 days and measured at 14 days (reference value: 0.40 +/- 0.06 %); type: organism-based; details: in vivo, 336 h, time 14 day
[36] = Acute toxicity in rat assessed as relative lung weight at 2000 mg/kg, po administered for 7 days followed by readministration after 7 days and measured at 14 days (reference value: 0.58 +/- 0.03 %); type: organism-based; details: in vivo, 336 h, time 14 day
[37] = Acute toxicity in rat assessed as relative kidney weight at 2000 mg/kg, po administered for 7 days followed by readministration after 7 days and measured at 14 days (reference value: 0.83 +/- 0.08%); type: organism-based; details: in vivo, 336 h, time 14 day
[38] = Acute toxicity in rat assessed as relative uterus weight at 2000 mg/kg, po administered for 7 days followed by readministration after 7 days and measured at 14 days (reference value: 0.27 +/- 0.09%); type: organism-based; details: in vivo, 336 h, time 14 day

**Q.** Which MIC [1] does the source give for `C=C[C@]1(C)C[C@@H](OC(=O)CSc2nc(OC(=O)c3ccc(C(C)(C)C)cc3)cs2)[C@]2(C)[C@H](C)CC[C@]3(CCC(=O)[C@H]32)[C@@H](C)[C@@H]1O` here?
**A.** > 32 µg/mL

**Q.** What about the MIC [2] of the same molecule?
**A.** > 32 µg/mL

**Q.** What about the MIC [3] of the same molecule?
**A.** 0.063 µg/mL (≈ 0.0963 µM)

**Q.** And the MIC [4]?
**A.** 0.125 µg/mL (≈ 0.191 µM)

**Q.** What about the Activity [5] of the same molecule?
**A.** Active

**Q.** And the PAE [6]?
**A.** 0.801 h

**Q.** What about the PAE [7] of the same molecule?
**A.** 1.09 h

**Q.** And the PAE [8]?
**A.** 1.85 h

**Q.** What about the PAE [9] of the same molecule?
**A.** 2.27 h

**Q.** What about the Activity [10] of the same molecule?
**A.** Active

**Q.** And the Activity [11]?
**A.** Active

**Q.** What about the Activity [12] of the same molecule?
**A.** Active

**Q.** And the viability at 24 h, 200 µM [13]?
**A.** 60%

**Q.** What about the viability at 200 µM [14] of the same molecule?
**A.** 94.3%

**Q.** And the pIC50 [15]?
**A.** < 3.70

**Q.** And the Activity [16]?
**A.** Non-toxic

**Q.** And the Activity [17]?
**A.** Non-toxic

**Q.** What about the Activity [18] of the same molecule?
**A.** Non-toxic

**Q.** And the Activity [19]?
**A.** Non-toxic

**Q.** What about the Activity [20] of the same molecule?
**A.** Non-toxic

**Q.** And the Activity [21]?
**A.** Non-toxic

**Q.** What about the Activity [22] of the same molecule?
**A.** Non-toxic

**Q.** And the Activity [23]?
**A.** 0.75 g

**Q.** And the Activity [24]?
**A.** 1.54 g

**Q.** What about the Activity [25] of the same molecule?
**A.** 0.52 g

**Q.** And the Activity [26]?
**A.** 0.78 g

**Q.** And the Activity [27]?
**A.** 8.57 g

**Q.** What about the Activity [28] of the same molecule?
**A.** 1.63 g

**Q.** And the Activity [29]?
**A.** 0.5 g

**Q.** And the Activity [30]?
**A.** 4.34%

**Q.** And the Activity [31]?
**A.** 0.28%

**Q.** What about the Activity [32] of the same molecule?
**A.** 0.58%

**Q.** What about the Activity [33] of the same molecule?
**A.** 0.8%

**Q.** And the Activity [34]?
**A.** 0.27%

**Q.** And the Activity [35]?
**A.** 0.36%

**Q.** And the Activity [36]?
**A.** 0.59%

**Q.** What about the Activity [37] of the same molecule?
**A.** 0.76%

**Q.** What about the Activity [38] of the same molecule?
**A.** 0.23%
